In patent US20260234144A1 (TAY THERAPEUTICS LIMITED, priority 2023, published 2026):

Tested on: R223X stop codon in the mutated luciferase gene, ADXC8 luciferase reporter cell line
Assay: cells
Format: cell-based
Conditions: 24 h, ADXC8 cells, 24 hours; for Emax: read-out: Fold Over Control, maximum fold response relative to 200 μM G418; for EC (100% of 200 uM G418 response): read-out: pC100%, negative logarithm of the concentration giving the same response as 200 μM G418

| SMILES | Emax [%] | EC (100% of 200 uM G418 response) [µM] |
| --- | --- | --- |
| CNc1c(C)c(NCCCN(C)C)nc2nc(C)cc(C)c12 [Example 522, N^2-(3-(dimethylamino)propyl)-N^4,3,5,7-tetramethyl-1,8-naphthyridine-2,4-diamine] | 0 to 100 | > 31.6 |
| CNc1nc(N[C@H]2CN(C(C)C)C[C@H]2F)nc2nc(C)cc(C)c12 [Example 523, N^2-((3S,4R)-4-fluoro-1-isopropylpyrrolidin-3-yl)-N^4,5,7-trimethylpyrido[2,3-d]pyrimidine-2,4-diamine] | 100 to 3000 | 1 to 10 |
| CNc1cc(C)c2c(NC)nc(N[C@@H]3CCN(C)C3)nc2n1 [Example 524, (R)—N^4,N^7,5-trimethyl-N^2-(1-methylpyrrolidin-3-yl)pyrido[2,3-d]pyrimidine-2,4,7-triamine] | 100 to 3000 | 1 to 10 |
| COc1cc(C)nc2nc(N[C@@H]3CCN(C)C3)nc(N)c12 [Example 525, (R)-5-methoxy-7-methyl-N^2-(1-methylpyrrolidin-3-yl)pyrido[2,3-d]pyrimidine-2,4-diamine] | 100 to 3000 | 10 to 100 |
| Cc1nc2nc(NC3CCN(Cc4ccc(C#N)cc4F)CC3)nc(N)c2c2c1CCC2 [Example 527] | 100 to 3000 | 0.1 to 1 |
| Cc1nc2nc(NC3CCN(Cc4ccc(C#N)c(F)c4)CC3)nc(N)c2c2c1CCC2 [Example 528] | 100 to 3000 | 0.1 to 1 |
| Cc1nc2nc(NC3CCN(Cc4ccncc4O)CC3)nc(N)c2c2c1CCC2 [Example 530] | 100 to 3000 | 0.1 to 1 |
| Cc1cc(C)c2c(N)nc(NC3CCN(Cc4ccncc4C(F)F)CC3)nc2n1 [Example 533] | 100 to 3000 | 10 to 100 |
| Cc1nc2nc(NC3CCN(Cc4ccc(C#N)cc4O)CC3)nc(N)c2c2c1CCC2 [Example 534] | 100 to 3000 | 0.1 to 1 |
| Cc1nc2nc(NC3CCN(Cc4cc(F)ccc4O)CC3)nc(N)c2c2c1CCC2 [Example 535] | 100 to 3000 | 0.1 to 1 |
| Cc1nc2nc(NC3CCN(Cc4cc(F)cc(F)c4O)CC3)nc(N)c2c2c1CCC2 [Example 536] | 100 to 3000 | 1 to 10 |
| Cc1nc2nc(NC3CCN(Cc4ccccc4O)CC3)nc(N)c2c2c1CCC2 [Example 537] | 100 to 3000 | 0.1 to 1 |
| Cc1cc(C)c2c(N)nc(NC3CCN(Cc4c(C)cccc4O)CC3)nc2n1 [Example 538] | 100 to 3000 | 0.1 to 1 |
| Cc1cc(C)c2c(N)nc(NC3CCN(Cc4cccc(C)c4O)CC3)nc2n1 [Example 539] | 100 to 3000 | 0.1 to 1 |
| Cc1ccc(CN2CCC(Nc3nc(N)c4c(C)cc(C)nc4n3)CC2)c(O)c1 [Example 540] | 100 to 3000 | 1 to 10 |
| Cc1cc(C)c2c(N)nc(NC3CCN(Cc4cc(C(F)(F)F)ccc4O)CC3)nc2n1 [Example 541] | 0 to 100 | > 31.6 |
| Cc1cc(C)c2c(N)nc(NC3CCN(Cc4cc(Cl)ccc4O)CC3)nc2n1 [Example 542] | 100 to 3000 | 1 to 10 |
| Cc1ccc(CN2CCC(Nc3nc(N)c4c(C)cc(C)nc4n3)CC2)cc1 [Example 543] | 100 to 3000 | 1 to 10 |
| CNc1nc(NC2CCN(Cc3ccccc3O)CC2)nc2nc(C)c3c(c12)CCC3 [Example 544] | 100 to 3000 | 0.1 to 1 |
| CNc1nc(N[C@@H]2CNC[C@H]2O)nc2nc3c(c(C)c12)CCC3 [Example 546] | 100 to 3000 | 1 to 10 |
| Cc1c2c(nc3nc(N[C@H]4CN(C)C[C@@H]4O)nc(N(C)C)c13)CCC2 [Example 547] | 100 to 3000 | 10 to 100 |
| Cc1ccc(O)c(CN2CCC(Nc3nc(N)c4c(C)cc(C)nc4n3)CC2)c1 [Example 548] | 100 to 3000 | 0.1 to 1 |
| Cc1cccc(CN2CCC(Nc3nc(N)c4c(C)cc(C)nc4n3)CC2)c1 [Example 549] | 100 to 3000 | 1 to 10 |
